Results as given in US7422793B2, “Non-toxic corrosion-protection rinses and seals based on rare earth elements” (University of Dayton, priority 2002, dated 2008).

Experiment: not given
Conditions: fluoride preparative agents; at or near 25° C. and at or near pH 7; cited from earlier work

| Molecule | Solubility in Water [mol/L] |
| --- | --- |
| F[Si-2](F)(F)(F)(F)F.[Na+].[Na+] [Sodium hexafluorosilicate] | 0.035 |

Same assay, conditions: pH 7; cited from earlier work

| Molecule | Solubility in Water |
| --- | --- |
| [Na+].[O]=[Al-]=[O] [Sodium aluminate] | 1 × 10^0 mole/L |
| [F][Nb-2]([F])([F])([F])([F])([F])[F].[Na+].[Na+] [Sodium heptafluoroniobate] | 0.05 mol/L |
| [F][Ta-2]([F])([F])([F])([F])([F])[F].[Na+].[Na+] [Sodium heptafluorotantalate] | 0.05 mol/L |
| [F][Al-3]([F])([F])([F])([F])[F].[Na+].[Na+].[Na+] [Sodium hexafluoroaluminate] | 0.0029 mol/L |
| [F][Sb-]([F])([F])([F])([F])[F].[Na+] [Sodium hexafluoroantimonate] | 4.97 × 10^0 mole/L |
| [F][Ge-2]([F])([F])([F])([F])[F].[Na+].[Na+] [Sodium hexafluorogermanate] | 0.01 mol/L |
| [F][Hf-2]([F])([F])([F])([F])[F].[Na+].[Na+] [Sodium hexafluorohafnate] | 0.07 mol/L |
| [F-].[F-].[F-].[F-].[F-].[F-].[Na+].[Na+].[Sn+4] [Sodium hexafluorostannate] | 0.01 mol/L |
| [F][Zr-2]([F])([F])([F])([F])[F].[Na+].[Na+] [Sodium hexafluorozirconate] | 0.06 mol/L |
| [Na+].[Na+].[O]=[Mo](=[O])([O-])[O-] [Sodium molybdate] | 215 mol/L |
| [Na+].[O]=[Nb](=[O])[O-] [Sodium niobate] | 0.059 mol/L |
| [O-][Cl+3]([O-])([O-])O [Sodium perchlorate] | 12 mol/L |
| [Na+].[Na+].[O-][O-] [Sodium peroxide] | 1 × 10^0 mole/L |
| O=[Se](=O)(O)O [Sodium selenate] | 1.2 × 10^0 mole/L |
| [Na+].[Na+].[O]=[Sn]([O-])[O-] [Sodium stannate] | 2.3 × 10^0 mole/L |
| [Na+].[O-2].[O-2].[O-2].[Ta+5] [Sodium tantalate] | 0.0055 mol/L |
| [O-][Cl+2]([O-])[O-].[O-][Cl+2]([O-])[O-].[Sr+2] [Strontium chlorate] | 6.9 × 10^0 mole/L |
| [O-][Cl+3]([O-])([O-])[O-].[O-][Cl+3]([O-])([O-])[O-].[Sr+2] [Strontium perchlorate] | 13 mol/L |
| O[Te](O)(O)(O)(O)O [Telluric acid] | 0.5 mol/L |
| [O]=[W](=[O])([OH])[OH] [Tungstic acid] | 0.8 mol/L |
| [O-][Cl+2]([O-])[O-].[O-][Cl+2]([O-])[O-].[Zn+2] [Zinc chlorate] | 8.6 × 10^0 mole/L |
| F[Si-2](F)(F)(F)(F)F.[Zn+2] [Zinc hexafluorosilicate] | 1.11 × 10^0 mole/L |

| Molecule | Solubility in Water |
| --- | --- |
| [O-][Cl+3]([O-])([O-])[O-].[O-][Cl+3]([O-])([O-])[O-].[Zn+2] [Zinc perchlorate] | 1 × 10^0 mole/L |
| Ammonium selenate | 6.0 × 10^0 mole/L |
| Calcium vanadate | 0.5 mol/L |
| Cesium bromate | 0.14 mol/L |
| Cesium germanate | 0.5 mol/L |
| Cesium tungstate | 5 × 10^0 mole/L |
| Chloroperoxybenzoic acid | 10 mol/L |
| Copper (II) hexafluorosilicate | 7.4 × 10^0 mole/L |
| Iron (III) hexafluorosilicate | “soluble” |
| Lithium bromate | 4.85 × 10^0 mole/L |
| Lithium germanate | 0.063 mol/L |
| Magnesium hexaniobate | 0.088 mol/L |
| Magnesium tungstate hydrate | 0.72 mol/L |
| Magnesium vanadate | 1 × 10^0 mole/L |
| Manganese (II) Fluorosilicate | 4.59 × 10^0 mole/L |
| Potassium arsenate | 0.74 mol/L |
| Potassium fluoroaluminate | 0.0061 mol/L |
| Potassium germanate | 1 × 10^0 mole/L |
| Potassium niobate | 0.05 mol/L |
| Potassium superoxide | 1 × 10^0 mole/L |
| Potassium tungstate | 142 mol/L |
| Potassium vanadate | 1 × 10^0 mole/L |

| Molecule | Solubility in Water |
| --- | --- |
| Rubidium bromate | 0.14 mol/L |
| Rubidium germanate | 0.5 mol/L |
| Rubidium heptafluoroniobate | 0.1 mol/L |
| Rubidium heptafluorotantalate | 0.1 mol/L |
| Rubidium hexafluorohafnate | 0.19 mol/L |
| Rubidium hexafluorostannate | 0.062 mol/L |
| Rubidium hexafluorotitanate | 0.025 mol/L |
| Rubidium hexafluorozirconate | 0.0848 mol/L |
| Rubidium periodate | 0.024 mol/L |
| Rubidium stannate | 5 × 10^0 mole/L |
| Rubidium tellurate | 0.01 mol/L |
| Rubidium tungstate | 50 mol/L |
| Silver (I) fluorogallate | 1 × 10^0 mole/L |
| Sodium perborate | 0.17 mol/L |
| Sodium tungstate | 249 mol/L |
| Strontium bromate | 0.91 mol/L |
| Strontium nitrite | 3.8 × 10^0 mole/L |
| Tin (IV) fluoride | 1 × 10^0 mole/L |
| Vanadium pentoxide | 0.044 mol/L |
| Zinc nitrite | 1 × 10^0 mole/L |

Experiment: pH change on placing the compound into deionized water of pH 7
Assay type: physicochemical
Conditions: simple laboratory experiment
Source text: A simple laboratory experiment confirms this effect. […] However, if icosahedral Ce(NO3)6^2− (note that this ion contains no hydroxide) is placed into deionized water of pH 7, a quite remarkable pH drop to −1 can be observed. The released tetravalent cerium ions will scavenge virtually all of the available OH^− ions in solution (possibly even degrading H2O itself to obtain […]), resulting in this dramatic pH drop.

| Molecule | pH after placing into deionized water of pH 7 |
| --- | --- |
| O=[N+]([O-])O.O=[N+]([O-])O.O=[N+]([O-])O.O=[N+]([O-])O.O=[N+]([O-])O.O=[N+]([O-])O.[Ce] [Ce(NO3)6^2−, hexanitratocerate (IV)] | −1 |
| [Ce+4].[OH-].[OH-].[OH-].[OH-] [Ce(OH)4, ceric hydroxide, reference compound] | only a minor pH change |

Experiment: not given
Conditions: in acid solution; couple to the trivalent ion; cited from earlier work

| Molecule | oxidation-reduction potential |
| --- | --- |
| [Ce+4] [Ce^+4, tetravalent cerium ion] | +1.72 V |
| hexavalent chromium [Cr^+6, reference compound] | +1.36 V |

Same assay, conditions: in acidic solution; Nugent et al. 1971; cited from earlier work

| Molecule | calculated redox potential |
| --- | --- |
| [Pr+4] [Pr^+4, tetravalent praseodymium ion] | +3.2 V |
| [Tb+4] [Tb^+4, tetravalent terbium ion] | +3.2 V |
